The conditions of series [1]: rat plasma, 50 mg/kg i.p.
The test system of series [2] is AMPK. As to conditions: initial screening; ref Zhen et al., 2019; cited from earlier work.
Series [3] deals with BV-2 microglial cells. Nature of the series: Cellular pharmacokinetics: uptake of metformin into BV-2 microglia (LC-MS/MS). The note with it: BV-2 cells.
Description: (§1) The Michaelis-Menten equation with one saturable component was fit to the corrected uptake rate and the estimated Km and Vmax values are presented.
The test system of series [4] is BV-2 microglial cells. Nature of the series: LPS-induced nitrite release in BV-2 microglial cells (Griess reagent). The note with it: BV-2 cells; for IC50: pre-incubation 1 h (0.03-2.0 mM), then LPS 24 h. The series is classed as cell-based. (In general: Griess reagent forms a coloured azo dye with nitrite.)
Protocol: (§2) In brief, 50 μl cell supernatants were mixed with 50 μl Griess regent in 96-well-plate and reacted for about 5–10 min at room temperature. Read plate at 540 nm by a Microplate reader (Infinite M200, Molecular Device).
Supernatants were collected for nitrite analysis.
In series [5] the test system is BV-2 microglial cells. The note with it: BV-2 cells, 1 mM, 1 h pre-incubation, LPS 200 ng/ml.
Protocol: as §2
Data were presented as mean ± SD, statistical analysis was performed with one-way ANOVA followed by a Dunnett’s post hoc tests, ^∗∗ p < 0.01 versus LPS group; ^## p < 0.01, versus LPS with SHY-treated group. […] Results are expressed as mean ± SD (n = 5). Data are presented as mean ± SD, statistical analysis was performed with one-way ANOVA, followed by a Dunnett’s post hoc tests, ^∗∗ p < 0.01 versus LPS group; ^# p < 0.05, versus LPS with SHY-treated group.
Series [6] deals with AMPK. Nature of the series: AMPK phosphorylation (p-AMPK Thr 172) by immunoblot in BV-2 microglial cells. Type of series: cell-based. As to conditions: for onset time of AMPK activation: 1 mM, time course; for concentration at which activation of AMPK (p-AMPK) was observed (lowest effective): 1 h incubation. The protocol: When reached 80% confluence, cells were seeded in 12-well or 6-well plates to perform further experiments.

For series [7], the system named is rat primary cortical neurons. The note with it: microglia treated with 1 mM, LPS 24 h; neurons 24 h.
Protocol: Primary rat cortical microglia cells were prepared from newborn to 2–3 days-old SD strains. […] The supernatant was discarded after centrifuging at 1,100 × rpm for 10 min, the pellet was resuspended, and cortices were fully dissociated by pipetting, the cell suspension was filtered through a 70 μm mesh and transferred into a 75-cm^2 culture flask with poly-L-lysine (PLL, Sigma-Aldrich) coated. Flasks were incubated at 37°C and 5% CO2, and half of the culture media were changed every 2 days, after 2 weeks of culture, primary microglia were harvested by shaking the flask for 2 h at 200 × rpm, and then seeded into new plates pre-coated with PLL. […]
The neuron culture medium was collected and LDH was measured by the LDH assay kit (BioAssay Systems) according to the manufacturer’s instructions.
Data were presented as mean ± SD, statistical analysis was performed with one-way ANOVA followed by a Dunnett’s post hoc tests, ^∗∗ p < 0.01 versus LPS group; ^## p < 0.01, versus LPS with SHY-treated group. […] Results are expressed as mean ± SD (n = 5). […] Cell viability was analyzed by MTT assay, results are expressed as mean ± SD (n = 8). […]
Series [8] relates to primary rat cortical neurons. Nature of the series: Oxygen and glucose deprivation (OGD) of primary cortical neurons, MTT viability. The note with it: 0.5 and 1 mM, 24 h pre-treatment, OGD 3 h, reperfusion 24 h. The series is classed as cell-based.
Protocol: The culture medium was replenished with Neurobasal medium (Life Technologies) supplemented with 2% B27 (Life Technologies) 5 h after isolation, and half of the culture media was changed every 2 days, after 6 days of culture, and the neurons were used for further experiments.
Cells were transferred to a hypoxia incubator with 1% oxygen and 5% CO2 for 3 h. […] Control cells were not submitted to OGD and were maintained under normal conditions.
Series [9] has as its system tMCAO rats. The note with it: 50 mg/kg/day i.p., four weeks after tMCAO.
A short description of series [10]: in vivo. The note with it: male, Sprague-Dawley, rat, plasma, ip, 50 mg/kg.
The nature of series [11]: in vivo. The note with it: male, Sprague-Dawley, rat, brain, 50 mg/kg.
Series [12] concerns AMPK. On the set-up: method as in Ma et al., 2014. The note with it: ref Ma et al., 2014; cited from earlier work.
Series [13] can be described thus: in vitro. The note with it: mouse, BV-2 microglial cells.
Description: as §1
Where [14] appears, read: 15 min uptake, Michaelis-Menten fit.
[15] abbreviates: rat brain, metformin measured, 50 mg/kg i.p.

Data on 3 molecules can be found in publication PMC9253272 (Frontiers in Pharmacology, 2022).

Structures can show the parent of a compound that is named as a salt. Where two headings read alike, the source gives them in different places.

In general, Cmax refers to the maximum level reached in the sampled fluid or tissue. A word on the Km: it is the substrate concentration at which the rate is half of its maximum. Usually IC50 stands for the concentration that inhibits the measured activity by half. With `CN(C)C(=N)NC(=N)N.O=C(O)[C@H](O)[C@@H](O)CO` [SHY-01, metformin threonate], in series [1], the “half-life (t 1/2)” value stood at 8.22 ± 5.52 h and the “maximum plasma concentration (Cmax)” value turned out to be 11.29 ± 3.9 ng/mL. Further, in series [1] (metformin measured), the “AUC (0−t)” value is 11470 ± 35 ng·h/mL, the “AUC (0−∞)” value was 12240 ± 40 ng·h/mL, the CLz was 4,116.73 ± 422.20 ml/hr/kg and the Cmax came to 11300 ± 3900 ng/mL. In series [1] (metformin measured), the “MRT (0−t)” value stood at 2.69 ± 0.45 H, the “MRT (0−∞)” value was found to be 5.06 ± 2.54 H, the Vz is 50,055.01 ± 36,787.23 ml/kg and the “t 1/2” value worked out at 8.22 ± 5.524 H. Moreover, in [1] (metformin measured), the t max is recorded as 0.5 H. The “potency on AMPK activation among the metformin salts screened” value in series [2] is listed as “strongest potency”. For the same molecule, the “accumulation of metformin compared with the same concentration of metformin hydrochloride” value in [3] is on record as “more rapid”. Besides, the “Vmax of metformin uptake” value in [3] (setting [14]) is 9.5 ± 1.2 nmol/min/mg protein. In addition, the “intracellular metformin contents compared with metformin hydrochloride” value in series [3] (LC-MS/MS) was “elevated intracellular metformin contents”. Besides, the Km in series [3] (read-out: Km of metformin uptake, 15 min uptake, Michaelis-Menten fit) was determined as 7.2 ± 1.5 mM. Also, the “metformin concentration in the brain” value (1 h after 50 mg/kg i.p.) was determined as 0.32 ± 0.023 µg/g. For the setting “2 h after 50 mg/kg i.p.”, the “metformin concentration in the brain” value is 0.25 ± 0.032 µg/g. Further, under setting [15], the “AUC (0−t)” value amounted to 1870 ± 230 ng·h/mL, the “AUC (0−∞)” value was found to be 2050 ± 180 ng·h/mL, the Cmax was 520 ± 110 ng/mL and the “MRT (0−t)” value is given as 5.73 ± 0.63 h. Also, under setting [15], the “MRT (0−∞)” value is listed as 8.19 ± 0.66 h and the t max is given as 0.5 h. The same molecule came in with an IC50 in series [4] of 302 µM. For the same molecule, the “inhibition of LPS-induced pro-inflammatory cytokine expression (TNF-α, IL-1β, iNOS) compared with metformin hydrochloride” value in series [5] is “stronger effect”. For the same molecule, in series [6] (BV-2 cells, 0.3 mM, 1 h), the “p-AMPK level compared to the same concentration of metformin hydrochloride” value is given as “significantly higher”. Moreover, the “effect on LPS-reduced AMPK phosphorylation” value in series [6] (BV-2 cells, 1 mM pre-incubation, LPS 200 ng/ml 0-4 h) is “significantly reverse”. Moreover, in series [6] (BV-2 cells), the “onset time of AMPK activation” value came to 0.5 h and the “concentration at which activation of AMPK (p-AMPK) was observed (lowest effective)” value is on record as 0.3 mM. Further, the “time to activation of AMPK after treatment” value in series [6] (discussion statement) was not above 30 min. Also, in series [7], the “LDH release of neurons in response to conditioned medium of LPS-activated microglia, versus control or metformin hydrochloride” value is recorded as “remarkably decrease”. Also, in [8], the “OGD-induced neuronal injury (cell viability, MTT)” value was “significantly prevented”. In addition, in series [9], the “Rope climbing test, difference between SHY-01 and metformin hydrochloride” value is recorded as “did not differ”; the “atrophic volume of the ischemic brain versus vehicle” value was “effectively reduced”; the “body weight changes, difference between SHY-01 and metformin hydrochloride” value is “did not differ”; the “brain atrophy compared with metformin hydrochloride” value is recorded as “more potent reduction”. Also, in series [9], the “neurologic score compared with metformin hydrochloride” value is “significantly better improvement” and the “spatial learning in the Morris water maze test compared with metformin hydrochloride” value is on record as “significantly better improvement”.
Consider `c1cc(-c2cnn3cc(-c4ccc(OCCN5CCCCC5)cc4)cnc23)ccn1` [compound C], for which, in [4] (compound C 10 μM 1 h pre-incubation, SHY-01 1 mM, LPS 200 ng/ml), the “effect on the inhibitory effect of SHY-01 on LPS-induced nitrite, TNF-α and IL-1β” value is given as “abolished”.
What is called AUC is concentration integrated over time. A lower AUC goes with low exposure. For orientation: AUC(0-inf) means total exposure, with the tail of the curve extrapolated. A higher AUC(0-inf) goes with more exposure. What is called AUC(0-t) is exposure summed from dosing to a finite time, without extrapolation to infinity. Low values mean less exposure, high ones more exposure. By MRT inf is commonly meant the average time that molecules of a dose stay in the body. As usually defined, the MRT last is the average time that molecules of a dose stay in the body. Consider `CN(C)C(=N)N=C(N)N` [metformin hydrochloride], for which, in [1] (metformin measured), the CLz is on record as 7,068.89 ± 949.45 ml/hr/kg, the Cmax came to 6640 ± 2110 ng/mL and the Vz is recorded as 79,683.93 ± 23,176.87 ml/kg. In series [10], this molecule came in with an AUC of 7170 ± 275 ng·h/mL, an AUC(0-inf) of 7170 ± 280 ng·h/mL, an AUC(0-t) of 6590 ± 270 ng·h/mL and a Cmax of 6630 ± 2100 ng/mL. Besides, in series [10], the MRT inf came out at 6.06 ± 1.73 h, the mean residence time (MRT last) worked out at 3.48 ± 0.65 h and the t max is 0.5 h. The “Vmax of metformin uptake” value in series [3] (setting [14]) turned out to be 4.6 ± 0.6 nmol/min/mg protein. Further, in series [11] (intraperitoneal), the concentration at 1 h was 190 ± 32 ng/g and the concentration at 2 h was 110 ± 12 ng/g. In series [11] (ip), this molecule showed an AUC(0-inf) of 1890 ± 80 ng·h/mL, an AUC(0-t) of 1600 ± 180 ng·h/mL, a Cmax of 320 ± 80 ng/g and an MRT inf of 12.2 ± 2.9 h. In [11] (ip), this molecule returned an MRT last of 7.71 ± 0.45 h and a t max of 0.5 h. In [12], the “treatment time required to activate AMPK” value is on record as not below 4 h. The molecule also returned an IC50 in series [4] (Mus musculus) of 1070 µM. The Km at 15 min in series [13] was 7.1 ± 1.7 mM. Besides, in series [6] (BV-2 cells), the “onset time of AMPK activation” value is given as 4 h and the “concentration at which activation of AMPK (p-AMPK) was observed (lowest effective)” value worked out at 1.0 mM. In addition, in [8], the “OGD-induced neuronal injury (cell viability, MTT)” value was “did not elicit such an effect”. In [9], the “atrophic volume of the ischemic brain versus vehicle” value is “effectively reduced”.
